Legend:
Type in all cases: binding, rabbit
antiserum II = experiment: Competitive ELISA and cross-reactivity test of antiserum II; details: antiserum II 1:30000, pure PA as competitor
Method: In competitive ELISA assay, one hundred microliters of coating antigen, BSA-pyrrole adducts, in PBS buffer was added to wells of a 96-well microtiter plate. The plates were incubated at 4° C. overnight or room temperature for 2 h. Serial dilutions of the competitor, N-acetyl-L-lysine-pyrrole, were prepared in PBST buffer. The resulting solution was mixed (1:1 v/v) with diluted antiserum in 5% nonfat milk dissolved in PBST buffer. The mixture was incubated at 4° C. overnight. The following day, the same procedure as in the titer analysis was followed. The absorbance at dual wavelength (450-650 nm) was read.

purified N-antibody = experiment: Competitive Western blot of purified N-antibody; details: competitor 0.1 mM or 1 mM, concentration-dependent
Method: (§1) In Western and competitive Western blot assay, coating antigen was loaded and resolved by 7.5% SDS-PAGE and then transferred to nitrocellulose membranes. Blots were then blocked with 5% nonfat milk in PBST buffer for 1 h at room temperature. Blotted membranes were incubated with 1/4000 dilution of purified N-antibody in PBST buffer with 5% nonfat milk in the absence or 0.1 mM or 1 mM of pyrrole-(NHMe)2 at 4° C. overnight. The following day, after washing three times with PBST buffer, membranes were incubated with anti-rabbit IgG-horseradish peroxidase solution (1/5000 in PBST buffer with 5% nonfat milk) for 1 h at room temperature. After washing, protein bands were detected by chemiluminescence with an ECL detection kit. […] Moreover, the immune response was inhibited by pyrrole-containing competitor, pyrrole-(NHMe)2, in competitive Western blot assays, and the inhibitory effect was concentration-dependent manner (FIG. 9).

purified S-antibody = experiment: Competitive Western blot of purified S-antibody; details: competitor 0.1 mM or 1 mM, concentration-dependent
Method: as §1, with “S-antibody” for “N-antibody”, “pyrrole-(SMe)2” for “pyrrole-(NHMe)2”, “pyrrole-(SMe)2,” for “pyrrole-(NHMe)2,”, “(See FIG. 11).” for “(FIG. 9).”

Compound	cross-reactivity with antiserum II (antiserum II)	further results
C[C@H]1C(=O)O[C@@H]2CCN3CC=C(COC(=O)[C@](C)(O)[C@]1(C)O)[C@H]23 [monocrotaline]	no cross-reactivity	–
pyrrole-(NHMe)2	–	inhibition of immune response of N-antibody with BSA-pyrrole adducts (purified N-antibody): inhibited
pyrrole-(SMe)2	–	inhibition of immune response of S-antibody with BSA-pyrrole adducts (purified S-antibody): inhibited
retrorsine	no cross-reactivity	–
